Columns and labels:
[1] = NRTL activity model correlation of LLE data (binary interaction parameters, equation 5); assay type: physicochemical; set-up: key to τ12^(0) / τ21^(0): constant term in τij = τij(0) + τij(1)/T + τij(2)T (NRTL, α=0.2); conditions: non-deuterated, α=0.2
From the text: Observed LLE data have been correlated with the NRTL (non-random two liquid) solution model as described in Shiflett, M. B. and Yokozeki, A. (Vapor-liquid-liquid equilibria of pentafluoroethane and ionic liquid [bmim][PF6] mixtures studied with the volumetric method, J. Phys. Chem. B (2006) 110:14436-14443); and in Shiflett, M. B. and Yokozeki, A. (Vapor-liquid-liquid equilibria of hydrofluorocarbons+1-butyl-3-methylimidazolium hexafluorophosphate, J. Chem. & Eng. Data (2006) 51:1931-1939).
The binary activity coefficients of the NRTL are given by:
[formula] where G12≡exp(−ατ12), and G21≡exp(−ατ21) (3)
α=0.2 (assumed to be a constant of 0.2 in this work).
xi=mole fraction of the i-th species.
The temperature-dependent binary interaction parameter (τij) is modeled here by a three term empirical equation: τ12=τ12^(0)+τ12^(1)/T+τ12^(2)T, and τ21=τ21^(0)+τ21^(1)/T+τ21^(2)T (5)
The binary LLE (L1 for liquid 1 and L2 for liquid 2) are mathematically described by the following equilibrium condition: γi^L1xi^L1=γi^L2xi^L2 (6) Thus, the two adjustable parameters τ12 and τ21 at a given T can be determined from one set of LLE experimental (volumetric method) data, using eq 6 (two nonlinearly coupled equations). We obtained several sets of such LLE data and can obtain τ12 and τ21 at respective T. Then, the empirical parameters in eq 5 were determined and are shown in Example 5, Table 5, where results for only the non-deuterated isomers with ionic liquids are given, since results for the deuterated isomer cases are similar to those in Table 5.

[2] = Single stage liquid-liquid extraction of HFC-4310mee with [bmim][BF4] in separatory funnel, GC analysis of upper phase; assay type: physicochemical; conditions: 7.2 g HFC-4310mee feed (88.8/11.2 vol % threo/erythro) mixed with 15.1 g [bmim][BF4]
Experimental: To evaluate this characterization, a sample of HFC-4310mee was analyzed by gas chromatography and found to contain 88.8 vol % HFC-4310mee-threo and 11.2 vol % HFC-4310mee-erythro diastereomers. A 7.2 gram sample of HFC-4310mee (i.e., the feed) was mixed with 15.1 grams of [bmim][BF4] (i.e., the extractant) in a separator funnel and vigorously mixed and then allowed to separate into two phases. […] [BF4]. The lower phase was separated from the top phase by opening the stopcock valve on the bottom of the separatory funnel and decanting off the lower phase. The remaining upper phase was analyzed by gas chromatography. The upper phase contained 91.8 vol % HFC-4310mee-threo and 8.2 vol % HFC-4310mee-erythro, which is in accordance with the ternary diagrams.

[3] = Cloud-point measurements / LCST of HFC-4310mee threo isomers plus ionic liquids; assay type: physicochemical
From the text: Starting at ambient temperature of about 293 K, where two liquid phases existed, the temperature was lowered (20 K/h) with manual mixing in a constant temperature bath (Tamson Instruments, TV4000LT, Zoetermeer, Netherlands) until only a single phase existed. The bath temperature was calibrated with the NIST traceable SPRT mentioned previously. Achieving a single phase with the mixtures prepared using [emim][BF4] involved going to a lower temperature than was required to achieve a single phase with the mixtures prepared using [bmim][PF6] and [bmim][BF4]. In addition, the rate of decrease in temperature had to be decreased from 20 to 5 K/h with vigorous manual mixing to prevent the ionic-liquid rich phase from solidifying. Sufficient time with vigorous mixing allowed for mixtures containing 70 mole % and higher threo-H and threo-D isomers with [emim][BF4] to become a single phase at a temperature of 240 K. Once the samples were single phase the temperature was slowly raised 2 K/h until a cloud layer became visible inside the tube. The temperature was recorded for each sample when the cloud layer formed and the temperature was slowly raised until all samples had reached the cloud point.

[4] = assay type: physicochemical
From the text: The separation of the erythro or threo diastereomer from a mixture thereof in HFC-4310mee involves one of the diastereomers being soluble to a greater extent in at least one ionic liquid than the other diastereomer is. In order to study this type of behavior, liquid-liquid equilibrium (LLE) and cloud point measurements on samples of HFC-4310mee were made as described in Examples 1 to 4. […]
Initially, the samples were mixed at room temperature (293.2 K) by vigorously shaking the sample containers. […] The water bath was stirred with an agitator (Arrow Engineering Co., Inc. model 1750, Hillside, N.J.) and the temperature measured with a thermocouple (Fluke Corporation, model 5211 thermometer, Everett, Wash.). The Fluke thermometer was calibrated using a standard platinum resistance thermometer (SPRT model 5699, Hart Scientific, American Fork, Utah, range 73 to 933 K) and readout (Blackstack model 1560 with SPRT module 2560). […]
The water bath temperature was initially set at about 283 K, and the sample containers were rocked back and forth. […] The mixing and measurement procedure was repeated each day and the heights plotted as a function of time until no further change in the heights was detected. […]

Row | SMILES | τ12^(0) ([1]; isomer (1)/[bmim][BF4] (2)) | τ12^(1)/K ([1]; isomer (1)/[bmim][BF4] (2)) [K] | τ12^(2)/K^−1 ([1]; isomer (1)/[bmim][BF4] (2)) [K^−1] | τ21^(0) ([1]; isomer (1)/[bmim][BF4] (2)) | τ21^(1)/K ([1]; isomer (1)/[bmim][BF4] (2)) [K] | τ21^(2)/K^−1 ([1]; isomer (1)/[bmim][BF4] (2)) [K^−1] | τ12^(0) ([1]; isomer (1)/[bmim][PF6] (2)) | τ12^(1)/K ([1]; isomer (1)/[bmim][PF6] (2)) [K] | τ12^(2)/K^−1 ([1]; isomer (1)/[bmim][PF6] (2)) [K^−1] | τ21^(0) ([1]; isomer (1)/[bmim][PF6] (2)) | τ21^(1)/K ([1]; isomer (1)/[bmim][PF6] (2)) [K] | τ21^(2)/K^−1 ([1]; isomer (1)/[bmim][PF6] (2)) [K^−1] | τ12^(0) ([1]; isomer (1)/[emim][BF4] (2)) | τ12^(1)/K ([1]; isomer (1)/[emim][BF4] (2)) [K] | τ12^(2)/K^−1 ([1]; isomer (1)/[emim][BF4] (2)) [K^−1] | τ21^(0) ([1]; isomer (1)/[emim][BF4] (2)) | τ21^(1)/K ([1]; isomer (1)/[emim][BF4] (2)) [K] | τ21^(2)/K^−1 ([1]; isomer (1)/[emim][BF4] (2)) [K^−1] | Content in upper phase (extract) by gas chromatography [2] [vol %] | Solubility in the present ionic liquids compared with the erythro-D and erythro-H isomers [4] | other results
1 | F[C@H]([C@H](F)C(F)(F)C(F)(F)F)C(F)(F)F [HFC-4310mee Erythro-H, erythro-2,3-dihydrodecafluoropentanes] | −1.1221 | 1492.7 | 0 | 18.7323 | −3018.8 | −0.02457 | −5.2583 | 2803.2 | 0 | 2.97 | −584.1 | 0 | 25.6965 | −3500.0 | −0.03688 | 72.2927 | −10850.0 | −0.1125 | 8.2 |  | 
2 | [2H]C(F)(C(F)(F)F)C([2H])(F)C(F)(F)C(F)(F)F (stereo not drawn) [HFC-4310mee Threo-D] |  |  |  |  |  |  |  |  |  |  |  |  |  |  |  |  |  |  |  | more soluble | Cloud point T/K ([3]; [bmim][BF4], 59.9 ± 0.5 mol % HFC): 311 ± 1 K; Cloud point T/K ([3]; [bmim][BF4], 69.4 ± 0.5 mol % HFC): 310 ± 1 K; Cloud point T/K ([3]; [bmim][BF4], 80.1 ± 0.5 mol % HFC): 309 ± 1 K; Cloud point T/K ([3]; [bmim][BF4], 89.3 ± 0.5 mol % HFC): 310 ± 1 K; Cloud point T/K ([3]; [bmim][PF6], 40.0 ± 0.5 mol % HFC): 272 ± 1 K; Cloud point T/K ([3]; [bmim][PF6], 50.0 ± 0.5 mol % HFC): 271 ± 1 K; Cloud point T/K ([3]; [bmim][PF6], 59.7 ± 0.5 mol % HFC): 271 ± 1 K; Cloud point T/K ([3]; [bmim][PF6], 69.8 ± 0.5 mol % HFC): 267 ± 1 K; Cloud point T/K ([3]; [bmim][PF6], 79.7 ± 0.5 mol % HFC): 267 ± 1 K; Cloud point T/K ([3]; [bmim][PF6], 88.5 ± 0.5 mol % HFC): 272 ± 1 K; Cloud point T/K ([3]; [emim][BF4], 69.6 ± 0.5 mol % HFC): 252 ± 3 K; Cloud point T/K ([3]; [emim][BF4], 80.1 ± 0.5 mol % HFC): 261 ± 2 K; Cloud point T/K ([3]; [emim][BF4], 89.8 ± 0.5 mol % HFC): 273 ± 1 K
3 | F[C@H]([C@@H](F)C(F)(F)C(F)(F)F)C(F)(F)F [HFC-4310mee Threo-H, threo-2,3-dihydrodecafluoropentanes] | 91.1575 | −1463.8 | −0.1288 | 81.6624 | −1506.8 | −0.1092 | 145.421 | −22306.3 | −0.2229 | −37.7767 | 5492.1 | 0.06485 | 50.3746 | −7994.5 | −0.06965 | −7.2227 | 1138.3 | 0.0158 | 91.8 | more soluble | LCST (lower critical solution temperature) ([3]; [bmim][BF4] system, at about 75 mole %): 307-309 K; Cloud point T/K ([3]; [bmim][BF4], 50.0 ± 0.5 mol % HFC): 311 ± 1 K; Cloud point T/K ([3]; [bmim][BF4], 59.1 ± 0.5 mol % HFC): 309 ± 1 K; Cloud point T/K ([3]; [bmim][BF4], 69.8 ± 0.5 mol % HFC): 308 ± 1 K; Cloud point T/K ([3]; [bmim][BF4], 79.5 ± 0.5 mol % HFC): 307 ± 1 K; Cloud point T/K ([3]; [bmim][BF4], 91.0 ± 0.5 mol % HFC): 308 ± 1 K; LCST (lower critical solution temperature) ([3]; [bmim][PF6] system, at about 70 (threo-isomer) mole %): 265-267 K; Cloud point T/K ([3]; [bmim][PF6], 40.6 ± 0.5 mol % HFC): 270 ± 1 K; Cloud point T/K ([3]; [bmim][PF6], 50.8 ± 0.5 mol % HFC): 269 ± 1 K; Cloud point T/K ([3]; [bmim][PF6], 60.4 ± 0.5 mol % HFC): 268 ± 1 K; Cloud point T/K ([3]; [bmim][PF6], 69.7 ± 0.5 mol % HFC): 265 ± 1 K; Cloud point T/K ([3]; [bmim][PF6], 80.0 ± 0.5 mol % HFC): 264 ± 1 K; Cloud point T/K ([3]; [bmim][PF6], 90.0 ± 0.5 mol % HFC): 276 ± 1 K; LCST (lower critical solution temperature) ([3]; [emim][BF4] system, at near 50 mole %): about 250 K; Cloud point T/K ([3]; [emim][BF4], 69.8 ± 0.5 mol % HFC): 250 ± 3 K; Cloud point T/K ([3]; [emim][BF4], 80.0 ± 0.5 mol % HFC): 260 ± 2 K; Cloud point T/K ([3]; [emim][BF4], 90.1 ± 0.5 mol % HFC): 268 ± 1 K

— patent US8075777B2, “Process for the separation of diastereomers” (E. I. du Pont de Nemours and Company, priority 2007, dated 2011)
